The values below come from paper PMC11678425, “(-)-Syringaresinol Exerts an Antidepressant-like Activity in Mice by Noncompetitive Inhibition of the Serotonin Transporter” (Pharmaceuticals, 2024).

Each structure is given as a SMILES string.

Data set [1] concerns the target T1, hSERT WT (Homo sapiens, UniProt P31645).
T1 construct: forward and reverse primers were used to amplify a full-length hSERT; expressed in transfected cells; host or cells: HeLa cells (CCL-2), transient, pcDNA3.1
In words: APP^+ uptake, hSERT WT. It counts as cell-based.

The target in data set [2] is T2, hSERT S438T (Homo sapiens, UniProt P31645, S438T).
T2 construct: forward and reverse primers were used to amplify a full-length hSERT; expressed in transfected cells; host or cells: HeLa
In words: APP^+ uptake, hSERT S438T. It counts as cell-based. Particulars: S1 site mutant, read-out: SYR IC50 for Transport. The method, then:
(§1) HeLa cells were cultured in Dulbecco’s Modified Eagle’s Medium supplemented with 10% fetal bovine serum, 100 units/mL penicillin, and 100 μg/mL streptomycin at 37 °C in a humidified 5% CO2 incubator. Cells grown at ~70% confluence in a 6 cm culture dish were transfected with hSERT cDNA in pcDNA3.1 by lipofectamine 2000. Transfected cells were incubated for 12 h at 37 °C with 5% CO2 and then transferred into 96-well plates. After being grown for an additional 12–16 h, the cells were then assayed for APP^+ uptake or ASP^+ binding.
(§2) Measurement of transport or ligand binding activity of SERT was performed by using its fluorescent substrate (APP^+) or ligand (ASP^+), respectively. The cells transiently expressing WT or mutants of hSERT were applied for various treatments. Briefly, the cells were washed twice with 100 μL KRH buffer containing 20 mM HEPES (Neofroxx, Einhausen, Germany), pH 7.4, 120 mM NaCl, 1.3 mM KCl, 2.2 mM CaCl2, 1.2 mM MgSO4, and 0.1% (w/v) glucose. APP^+ uptake was measured by adding 100 μL KRH buffer containing 2 μM APP^+ and incubating for 5 min at 22 °C. Excess APP^+ was then removed by 3× rapid washing with 100 μL KRH buffer each time. The extent of APP^+ accumulated in the cells was determined by fluorescence spectrometry with an Infinite 200 Pro microplate reader (Tecan, Männedorf, Switzerland). […]

The target of data set [3] is T3, hSERT D328A (Homo sapiens, UniProt P31645, D328A).
T3 construct: forward and reverse primers were used to amplify a full-length hSERT; expressed in transfected cells; host or cells: HeLa cells, transient, pcDNA3.1
As to the kind of experiment: ASP^+ binding, hSERT D328A. The following applies: S2 site mutant, read-out: SYR IC50 for Binding.

For data set [4], the target named is T4, hSERT E493N (Homo sapiens, UniProt P31645, E493N).
T4 construct: forward and reverse primers were used to amplify a full-length hSERT; expressed in transfected cells; host or cells: HeLa cells, transient, pcDNA3.1
In words: ASP^+ binding, hSERT E493N. Particulars: S2 site mutant, read-out: SYR IC50 for Binding.

In data set [5] the target is T5, hSERT T497A (Homo sapiens, UniProt P31645, T497A).
T5 construct: forward and reverse primers were used to amplify a full-length hSERT; expressed in transfected cells; host or cells: HeLa cells, transient, pcDNA3.1
In words: ASP^+ binding, hSERT T497A. The following applies: S2 site mutant, read-out: SYR IC50 for Binding.

In data set [6] the target is T6, hSERT R564A (Homo sapiens, UniProt P31645, R564A).
T6 construct: forward and reverse primers were used to amplify a full-length hSERT; expressed in transfected cells; host or cells: HeLa
In words: ASP^+ binding, hSERT R564A. The following applies: S2 site mutant, read-out: SYR IC50 for Binding.

For data set [7], the target named is T7, hSERT L565A (Homo sapiens, UniProt P31645, L565A).
T7 construct: forward and reverse primers were used to amplify a full-length hSERT; expressed in transfected cells; host or cells: HeLa
As to the kind of experiment: ASP^+ binding, hSERT L565A. The following applies: S2 site mutant, read-out: SYR IC50 for Binding.

Data set [8] addresses T8, hSERT Y579A (Homo sapiens, UniProt P31645, Y579A).
T8 construct: forward and reverse primers were used to amplify a full-length hSERT; expressed in transfected cells; host or cells: HeLa
As to the kind of experiment: ASP^+ binding, hSERT Y579A. The following applies: S2 site mutant, read-out: SYR IC50 for Binding.

Data set [9] has as its system hSERT S2 mutants. As to the kind of experiment: APP^+ uptake or ASP^+ binding, all S2 mutants compared with WT. Particulars: all S2 mutants tested. It counts as cell-based, human. The method, then: as §1
Measurement of transport or ligand binding activity of SERT was performed by using its fluorescent substrate (APP^+) or ligand (ASP^+), respectively. The cells transiently expressing WT or mutants of hSERT were applied for various treatments. […] APP^+ uptake was measured by adding 100 μL KRH buffer containing 2 μM APP^+ and incubating for 5 min at 22 °C. […] The extent of APP^+ accumulated in the cells was determined by fluorescence spectrometry with an Infinite 200 Pro microplate reader (Tecan, Männedorf, Switzerland).
ASP^+ binding to SERT expressed on the cell surface was measured with digitonin-permeabilized cells as described previously. […] After removing excess ASP^+ by 3× rapid washing, ASP^+ fluorescence retained in the cell membrane was determined by fluorescence spectrometry. […]

The test system of data set [10] is hSERT S1 mutants (Y95F, I172F, S438T). As to the kind of experiment: APP^+ uptake, S1 site mutants compared with WT. It counts as cell-based, human. The procedure:
as §1, §2

Data set [11] relates to CUMS mice. As to the kind of experiment: Home cage food consumption after NSFT. Particulars: mouse, in vivo. It counts as in vivo, mouse. The procedure: Figure 6 Animal behavioral tests. (A) Schematic illustration of animal behavioral test timeline. Mice were exposed to CUMS for 3 weeks, as described in Section 4. […] For the CUMS group, saline was given instead of drugs. NSFT was performed after 16–18 h food deprivation, followed by FST and TST. (B) NSFT. The latency time to food in NSFT was counted. (C) Home cage food consumption. Food consumed by individual mice in the home cage (g) within a 20 min period was measured after NSFT. (D) FST. The immobility time during a 2 to 6 min period in FST was measured. (E) TST. The immobility time during 2 to 6 min was counted. n = 8–10 mice/group. Bars represent the mean ± SEM. * p < 0.05 compared with the control or CUMS group, respectively, by one-way ANOVA followed by post hoc tests. ns, not significant.
NSFT was performed after 16 h food deprivation, as described previously. The mouse was placed in an open field (24 × 40 × 14 cm), where a new chow was put in the center, and the latency time to bite food was counted over 10 min. Home cage feeding within a 20 min period was measured after the test. FST was carried out according to a protocol described previously. The mouse was placed into a beaker (Bomex, Beijing, China) with a height of 18 cm filled with water (22 ± 1 °C) for 6 min. The immobile time was measured during minutes 2–6. […] The immobile time during minutes 2–6 was measured.

Data set [12] concerns CUMS mice. The following applies: all tested dosages, i.p.

T1 sequence (P31645 whole entry): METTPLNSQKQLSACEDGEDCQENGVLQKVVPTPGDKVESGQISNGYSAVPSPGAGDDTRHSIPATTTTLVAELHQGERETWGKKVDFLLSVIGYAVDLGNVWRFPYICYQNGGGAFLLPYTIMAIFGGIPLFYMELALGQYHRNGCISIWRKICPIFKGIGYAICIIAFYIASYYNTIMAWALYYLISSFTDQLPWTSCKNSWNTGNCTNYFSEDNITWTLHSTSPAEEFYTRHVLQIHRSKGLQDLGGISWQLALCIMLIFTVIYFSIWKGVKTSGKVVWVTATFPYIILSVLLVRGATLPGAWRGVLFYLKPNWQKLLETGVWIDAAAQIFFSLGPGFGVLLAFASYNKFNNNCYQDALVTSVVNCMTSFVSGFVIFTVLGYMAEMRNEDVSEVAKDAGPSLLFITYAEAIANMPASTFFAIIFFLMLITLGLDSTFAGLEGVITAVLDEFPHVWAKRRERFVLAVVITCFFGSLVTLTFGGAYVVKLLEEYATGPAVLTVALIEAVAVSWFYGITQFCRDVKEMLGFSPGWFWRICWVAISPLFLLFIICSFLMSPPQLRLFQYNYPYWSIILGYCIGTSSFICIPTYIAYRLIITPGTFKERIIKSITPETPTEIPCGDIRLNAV
T2 sequence (P31645 whole entry S438T): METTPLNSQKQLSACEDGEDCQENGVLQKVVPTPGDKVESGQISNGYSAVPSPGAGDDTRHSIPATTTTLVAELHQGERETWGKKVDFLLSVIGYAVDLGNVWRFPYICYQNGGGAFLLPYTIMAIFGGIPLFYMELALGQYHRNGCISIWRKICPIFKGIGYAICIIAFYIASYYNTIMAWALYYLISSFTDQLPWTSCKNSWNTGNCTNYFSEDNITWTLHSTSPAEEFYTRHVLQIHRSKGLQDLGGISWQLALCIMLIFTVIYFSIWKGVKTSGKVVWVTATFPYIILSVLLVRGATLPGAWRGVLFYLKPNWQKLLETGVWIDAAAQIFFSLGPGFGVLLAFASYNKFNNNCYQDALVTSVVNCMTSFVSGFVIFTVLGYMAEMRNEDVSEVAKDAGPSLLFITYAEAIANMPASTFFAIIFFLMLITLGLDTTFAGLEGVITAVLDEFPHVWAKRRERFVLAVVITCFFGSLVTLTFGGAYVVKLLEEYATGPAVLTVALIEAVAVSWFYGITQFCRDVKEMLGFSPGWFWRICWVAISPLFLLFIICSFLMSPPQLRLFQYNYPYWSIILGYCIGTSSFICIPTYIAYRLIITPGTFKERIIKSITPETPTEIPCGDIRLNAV
T7 sequence (P31645 whole entry L565A): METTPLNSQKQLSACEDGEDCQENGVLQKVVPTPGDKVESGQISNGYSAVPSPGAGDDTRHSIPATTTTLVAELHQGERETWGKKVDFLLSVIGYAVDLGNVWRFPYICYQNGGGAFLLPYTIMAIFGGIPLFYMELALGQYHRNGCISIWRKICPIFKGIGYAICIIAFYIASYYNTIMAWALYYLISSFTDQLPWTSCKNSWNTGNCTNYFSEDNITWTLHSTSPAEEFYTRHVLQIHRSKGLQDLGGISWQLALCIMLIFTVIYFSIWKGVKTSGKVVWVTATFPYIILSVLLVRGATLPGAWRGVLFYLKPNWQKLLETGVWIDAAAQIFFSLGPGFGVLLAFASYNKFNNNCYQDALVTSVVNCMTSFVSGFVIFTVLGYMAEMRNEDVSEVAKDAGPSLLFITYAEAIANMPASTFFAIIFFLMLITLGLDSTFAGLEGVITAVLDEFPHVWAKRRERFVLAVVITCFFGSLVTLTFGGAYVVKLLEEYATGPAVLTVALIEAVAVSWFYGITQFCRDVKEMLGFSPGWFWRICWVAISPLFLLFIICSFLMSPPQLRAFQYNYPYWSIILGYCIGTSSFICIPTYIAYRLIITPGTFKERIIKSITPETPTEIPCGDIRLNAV
T6 sequence (P31645 whole entry R564A): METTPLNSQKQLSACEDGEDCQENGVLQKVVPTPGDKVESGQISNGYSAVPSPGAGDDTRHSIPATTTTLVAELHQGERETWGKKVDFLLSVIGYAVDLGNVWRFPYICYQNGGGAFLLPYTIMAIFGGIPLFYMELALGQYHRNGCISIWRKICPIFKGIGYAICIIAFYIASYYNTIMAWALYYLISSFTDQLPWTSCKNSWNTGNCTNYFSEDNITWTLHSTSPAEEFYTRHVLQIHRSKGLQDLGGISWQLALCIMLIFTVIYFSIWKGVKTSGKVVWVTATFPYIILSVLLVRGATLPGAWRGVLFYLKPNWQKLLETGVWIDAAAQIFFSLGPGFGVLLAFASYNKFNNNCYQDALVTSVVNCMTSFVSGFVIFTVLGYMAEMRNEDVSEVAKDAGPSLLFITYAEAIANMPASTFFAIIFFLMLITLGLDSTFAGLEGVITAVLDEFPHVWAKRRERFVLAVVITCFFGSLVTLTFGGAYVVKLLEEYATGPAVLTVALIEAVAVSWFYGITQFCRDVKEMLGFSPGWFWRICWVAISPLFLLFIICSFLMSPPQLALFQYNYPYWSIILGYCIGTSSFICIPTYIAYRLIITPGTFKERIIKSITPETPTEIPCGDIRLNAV
T4 sequence (P31645 whole entry E493N): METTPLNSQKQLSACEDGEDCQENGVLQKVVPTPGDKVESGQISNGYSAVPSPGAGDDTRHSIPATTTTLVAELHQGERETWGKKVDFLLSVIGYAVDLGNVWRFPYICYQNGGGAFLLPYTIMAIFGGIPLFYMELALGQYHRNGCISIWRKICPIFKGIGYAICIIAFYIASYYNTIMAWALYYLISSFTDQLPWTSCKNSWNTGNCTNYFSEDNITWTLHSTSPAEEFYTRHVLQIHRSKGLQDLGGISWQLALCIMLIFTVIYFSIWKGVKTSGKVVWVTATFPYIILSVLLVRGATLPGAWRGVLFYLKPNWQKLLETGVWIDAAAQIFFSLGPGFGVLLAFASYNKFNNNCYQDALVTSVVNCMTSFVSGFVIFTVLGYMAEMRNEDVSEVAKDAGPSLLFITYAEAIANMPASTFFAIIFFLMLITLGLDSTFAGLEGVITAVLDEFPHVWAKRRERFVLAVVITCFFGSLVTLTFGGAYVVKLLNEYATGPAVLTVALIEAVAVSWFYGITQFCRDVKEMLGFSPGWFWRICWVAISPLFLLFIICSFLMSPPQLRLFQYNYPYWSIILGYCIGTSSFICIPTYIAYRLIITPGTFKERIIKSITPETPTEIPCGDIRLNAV
T5 sequence (P31645 whole entry T497A): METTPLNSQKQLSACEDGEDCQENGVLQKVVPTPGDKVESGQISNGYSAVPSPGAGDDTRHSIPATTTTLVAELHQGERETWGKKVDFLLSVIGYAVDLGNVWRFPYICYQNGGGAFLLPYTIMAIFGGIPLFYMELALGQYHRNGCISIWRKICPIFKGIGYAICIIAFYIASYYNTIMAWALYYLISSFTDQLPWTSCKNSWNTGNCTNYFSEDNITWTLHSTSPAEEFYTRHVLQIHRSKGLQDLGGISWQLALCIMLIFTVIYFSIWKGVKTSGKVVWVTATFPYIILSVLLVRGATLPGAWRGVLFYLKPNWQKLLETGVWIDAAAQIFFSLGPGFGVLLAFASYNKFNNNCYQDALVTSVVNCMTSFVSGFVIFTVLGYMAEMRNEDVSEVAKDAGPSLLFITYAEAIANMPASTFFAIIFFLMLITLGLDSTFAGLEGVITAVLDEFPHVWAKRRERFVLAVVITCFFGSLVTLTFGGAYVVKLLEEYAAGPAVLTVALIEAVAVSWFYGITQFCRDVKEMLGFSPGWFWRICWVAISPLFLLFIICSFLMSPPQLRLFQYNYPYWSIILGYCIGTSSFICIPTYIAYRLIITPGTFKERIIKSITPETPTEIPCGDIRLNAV
T8 sequence (P31645 whole entry Y579A): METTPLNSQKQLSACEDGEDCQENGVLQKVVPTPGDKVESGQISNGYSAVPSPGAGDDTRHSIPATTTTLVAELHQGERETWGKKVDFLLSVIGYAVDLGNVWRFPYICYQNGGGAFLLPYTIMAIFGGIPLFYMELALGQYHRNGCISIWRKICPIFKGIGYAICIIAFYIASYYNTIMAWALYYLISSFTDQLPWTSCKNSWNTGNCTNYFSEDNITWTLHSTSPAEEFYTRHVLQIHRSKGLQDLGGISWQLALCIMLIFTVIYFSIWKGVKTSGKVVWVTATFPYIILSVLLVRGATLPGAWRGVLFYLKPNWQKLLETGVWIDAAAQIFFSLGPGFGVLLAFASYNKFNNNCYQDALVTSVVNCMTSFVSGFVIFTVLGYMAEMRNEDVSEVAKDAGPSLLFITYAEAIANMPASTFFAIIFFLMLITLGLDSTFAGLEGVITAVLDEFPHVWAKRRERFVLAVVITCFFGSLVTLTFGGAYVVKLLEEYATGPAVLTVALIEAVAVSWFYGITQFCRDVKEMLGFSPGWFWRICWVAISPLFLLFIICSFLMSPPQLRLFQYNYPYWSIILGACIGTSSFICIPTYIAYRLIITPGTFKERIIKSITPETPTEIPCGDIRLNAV
T3 sequence (P31645 whole entry D328A): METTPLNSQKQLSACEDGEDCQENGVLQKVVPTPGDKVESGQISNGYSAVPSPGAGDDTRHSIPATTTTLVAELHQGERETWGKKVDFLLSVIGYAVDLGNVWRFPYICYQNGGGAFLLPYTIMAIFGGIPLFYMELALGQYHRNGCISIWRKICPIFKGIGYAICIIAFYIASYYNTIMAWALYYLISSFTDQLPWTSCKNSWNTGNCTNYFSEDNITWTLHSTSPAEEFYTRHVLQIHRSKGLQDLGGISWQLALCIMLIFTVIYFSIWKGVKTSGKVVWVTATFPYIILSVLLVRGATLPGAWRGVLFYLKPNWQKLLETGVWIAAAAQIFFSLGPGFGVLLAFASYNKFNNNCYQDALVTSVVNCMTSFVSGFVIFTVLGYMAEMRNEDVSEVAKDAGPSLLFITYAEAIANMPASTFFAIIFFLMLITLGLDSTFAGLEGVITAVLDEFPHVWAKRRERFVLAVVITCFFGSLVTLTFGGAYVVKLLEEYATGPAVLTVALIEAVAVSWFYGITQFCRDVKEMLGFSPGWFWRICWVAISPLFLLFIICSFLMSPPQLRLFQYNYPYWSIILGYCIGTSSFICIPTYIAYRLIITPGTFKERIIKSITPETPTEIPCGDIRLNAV

As for `COc1cc([C@@H]2OC[C@@H]3[C@H]2CO[C@H]3c2cc(OC)c(O)c(OC)c2)cc(OC)c1O` [SYR, (-)-syringaresinol], the 50% inhibitory concentration (IC50) came to 0.25 ± 0.01 µM in data set [1] (WT, APP^+ uptake, SYR added 5 min prior to APP^+, read-out: SYR IC50 for Transport); 0.91 ± 0.02 µM in data set [2]; 39.2 ± 0.78 µM in data set [3]; 13.5 ± 1.3 µM in [4]; 43.7 ± 2.6 µM in [5]; 30.4 ± 1.42 µM in [6]. Further, the IC50 in [7] turned out to be 21 ± 0.45 µM; in data set [8] it was 28.62 ± 0.15 µM. The “Vmax of APP^+ transport with addition of SYR” value in [1] ([…] SYR) worked out at 12.95 ± 1.52 AFU/min. Further, the “increase of inhibitory potency compared with SAG” value in [1] (compared with glycoside derivative SAG) is “approximately 10 fold”. Further, the “mode of inhibition of APP^+ transport” value in [1] (decreased Vmax, little change in Km) is recorded as “noncompetitive inhibitor”. Further, the “increase of SYR IC50 for APP^+ uptake or ASP^+ binding compared with WT” value in data set [9] is listed as “more than 10 fold”. In [10], the “SYR IC50 for APP^+ uptake relative to WT” value is reported as 3- to 10 fold. In [11], the “home cage food consumption” value is on record as “little effect”. The fatality rate entry in [12] was “zero fatality rate”.
